Measured values taken from US20110136829A1, “3-(N-HETEROCYCLYL)-PYRROLIDINYL-PHENYL-OXAZOLIDINONES AS ANTIBACTERIAL AGENTS” (FERRER INTERNACIONAL, S.A., priority 2008, published 2011).
Converted amounts (≈) assume the structure as drawn.

How the values were obtained:
[1] = system: S. aureus ATCC25923 MS; assay: MIC by standard micro dilution method (NCCLS M7-A5); type: cell-based; conditions: Staphylococcus aureus, Mueller-Hinton medium (cation-adjusted), 16-24 h at 35° C., read-out: MIC, microorganism (1) S. aureus ATCC25923 MS
[2] = system: S. aureus LNZ-R 432; assay: as above; type: cell-based; conditions: Staphylococcus aureus, LNZR432; linezolid-resistant strain; Mueller-Hinton medium, 16-24 h at 35° C.; read-out: MIC, microorganism (4) S. aureus LNZ-R 432
[3] = system: E. faecium ATCC51559 MDR; assay: as above; type: cell-based; conditions: Enterococcus faecium, Mueller-Hinton medium (cation-adjusted), 16-24 h at 35° C., read-out: MIC, microorganism (3) E. faecium ATCC51559 MDR
[4] = system: H. influenzae ATCC49247; assay: as above; type: cell-based; conditions: Haemophilus influenzae, read-out: MIC, microorganism (6) H. influenzae ATCC49247
[5] = system: S. haemolyticus; assay: as above; type: cell-based; conditions: Staphylococcus haemolyticus; Mueller-Hinton medium (cation-adjusted), 16-24 h at 35° C.; read-out: MIC, microorganism (5) S. haemolyticus
[6] = system: B. fragilis sp. fragilis ATCC25285; assay: as above; type: cell-based; conditions: Bacteroides fragilis, anaerobic strain, Brucella Blood medium supplemented, read-out: MIC, microorganism (7) B. fragilis sp. fragilis ATCC25285
[7] = system: M. catarrhalis HCI-78; assay: as above; type: cell-based; conditions: Moraxella catarrhalis, HCI78; 20-24 h at 35° C., 5% CO2; read-out: MIC, microorganism (8) M. catarrhalis HCI-78
[8] = system: S. pneumoniae ATCC49619 PR; assay: as above; type: cell-based; conditions: Streptococcus pneumoniae, 20-24 h at 35° C., 5% CO2, read-out: MIC, microorganism (2) S. pneumoniae ATCC49619 PR
[9] = system: E. faecium LNZ-R LR-4; assay: as above; type: cell-based; conditions: Enterococcus faecium; linezolid-resistant strain; Mueller-Hinton medium, 16-24 h at 35° C.; read-out: MIC, microorganism (9) E. faecium LNZ-R LR-4
[10] = system: other Gram-negative bacteria; conditions: background art; cited from earlier work
[11] = system: Moraxella, Pasteurella and Bacteroides spp.; conditions: background art; cited from earlier work

MIC [1] [µg/mL]	MIC [2] [µg/mL]	MIC [3] [µg/mL]	MIC [4] [µg/mL]	MIC [6] [µg/mL]	MIC [7] [µg/mL]	MIC [8] [µg/mL]	MIC [9] [µg/mL]	Structure (SMILES)	MIC [5] [µg/mL]	susceptibility of other Gram-negative bacteria [10]	MICS for Moraxella, Pasteurella and Bacteroides spp. [11] [µg/mL]
1 (≈ 2.57 µM)	16 (≈ 41.2 µM)	0.5 (≈ 1.29 µM)	4 (≈ 10.3 µM)	1 (≈ 2.57 µM)	1 (≈ 2.57 µM)	1 (≈ 2.57 µM)	8 (≈ 20.6 µM)	CC(=O)NC[C@H]1CN(c2ccc(N3CCC(n4ccnn4)C3)c(F)c2)C(=O)O1 (stereo partly drawn) [Ex. 3, N-((5S)-3-{3-fluoro-4-[3-(1-triazolyl)pyrrolidin-1-yl]-phenyl}-2-oxo-5-oxazolidinylmethyl)acetamide]	4 (≈ 10.3 µM)	–	–
1 (≈ 2.31 µM)	8 (≈ 18.5 µM)	1 (≈ 2.31 µM)	2 (≈ 4.63 µM)	0.5 (≈ 1.16 µM)	1 (≈ 2.31 µM)	0.25 (≈ 0.578 µM)	4 (≈ 9.25 µM)	CC(=O)NC[C@H]1CN(c2ccc(N3CCC(n4cc([N+](=O)[O-])cn4)C3)c(F)c2)C(=O)O1 (stereo partly drawn) [Ex. 9, N-((5S)-3-{3-fluoro-4-[3-(4-nitropyrazol)pyrrolidinyl]-phenyl}-2-oxo-5-oxazolidinylmethyl)acetamide]	1 (≈ 2.31 µM)	–	–
1 (≈ 2.14 µM)	8 (≈ 17.2 µM)	0.5 (≈ 1.07 µM)	1 (≈ 2.14 µM)	0.5 (≈ 1.07 µM)	2 (≈ 4.29 µM)	0.25 (≈ 0.536 µM)	1 (≈ 2.14 µM)	CC(=O)NC[C@H]1CN(c2ccc(N3CCC(n4cc(Br)cn4)C3)c(F)c2)C(=O)O1 (stereo partly drawn) [Ex. 17, N-((5S)-3-{3-fluoro-4-[3-(4-bromopyrazol-1-yl)pyrrolidin-1-yl]-phenyl}-2-oxo-5-oxazolidinylmethyl)acetamide]	1 (≈ 2.14 µM)	–	–
0.5 (≈ 1.08 µM)	2 (≈ 4.31 µM)	0.25 (≈ 0.538 µM)	4 (≈ 8.61 µM)	0.25 (≈ 0.538 µM)	0.5 (≈ 1.08 µM)	0.06 (≈ 0.129 µM)	8 (≈ 17.2 µM)	CC(=O)NC[C@H]1CN(c2ccc(N3CCC(n4cc(-c5ccncc5)cn4)C3)c(F)c2)C(=O)O1 (stereo partly drawn) [Ex. 18, N-((5S)-3-{3-fluoro-4-[3-(4-pyridin-4-yl-pyrazol-1-yl)pyrrolidin-1-yl]-phenyl}-2-oxo-5-oxazolidinylmethyl)acetamide]	–	–	–

Continued, compound first:

Structure (SMILES)	MIC [1] [µg/mL]	MIC [2] [µg/mL]	MIC [3] [µg/mL]	MIC [4] [µg/mL]	MIC [6] [µg/mL]	MIC [7] [µg/mL]	MIC [8] [µg/mL]	MIC [9] [µg/mL]	MIC [5] [µg/mL]	susceptibility of other Gram-negative bacteria [10]	MICS for Moraxella, Pasteurella and Bacteroides spp. [11] [µg/mL]
CC(=O)NC[C@H]1CN(c2ccc(N3CCC(n4cc(-c5ccncn5)cn4)C3)c(F)c2)C(=O)O1 (stereo partly drawn) [Ex. 11, N-((5S)-3-{3-fluoro-4-[3-(4-pyrimidin-4-yl-pyrazol-1-yl)pyrrolidin-1-yl]-phenyl}-2-oxo-5-oxazolidinylmethyl)acetamide]	0.5 (≈ 1.07 µM)	2 (≈ 4.3 µM)	0.25 (≈ 0.537 µM)	4 (≈ 8.59 µM)	0.5 (≈ 1.07 µM)	0.5 (≈ 1.07 µM)	0.125 (≈ 0.269 µM)	8 (≈ 17.2 µM)	–	–	–
CC(=O)NC[C@H]1CN(c2ccc(N3CCC(n4nnc(-c5cccs5)n4)C3)c(F)c2)C(=O)O1 (stereo partly drawn) [Ex. 15, N-((5S)-3-{3-fluoro-4-[3-(5-thiophen-2-yl-tetrazol-2-yl)pyrrolidin-1-yl]-phenyl}-2-oxo-5-oxazolidinylmethyl)acetamide]	0.5 (≈ 1.06 µM)	4 (≈ 8.48 µM)	0.25 (≈ 0.53 µM)	8 (≈ 17 µM)	0.5 (≈ 1.06 µM)	2 (≈ 4.24 µM)	0.125 (≈ 0.265 µM)	8 (≈ 17 µM)	–	–	–
CC(=O)NC[C@H]1CN(c2ccc(N3CCC(n4cc(-c5ccc([N+](=O)[O-])cc5)cn4)C3)c(F)c2)C(=O)O1 (stereo partly drawn) [Ex. 19, N-[(5S)-3-(3-fluoro-4-{3-[4-(4-nitrophenyl)-pyrazol-1-yl]pyrrolidin-1-yl}-phenyl)-2-oxo-5-oxazolidinylmethyl]acetamide]	0.5 (≈ 0.983 µM)	2 (≈ 3.93 µM)	0.25 (≈ 0.492 µM)	4 (≈ 7.87 µM)	1 (≈ 1.97 µM)	1 (≈ 1.97 µM)	0.125 (≈ 0.246 µM)	64 (≈ 126 µM)	–	–	–
CC(=O)NC[C@H]1CN(c2ccc(N3CCC(n4ccc(C(F)(F)F)n4)C3)c(F)c2)C(=O)O1 (stereo partly drawn) [Ex. 26, N-((5S)-3-{3-fluoro-4-[3-(3-trifluoromethyl-pyrazol-1-yl)pyrrolidin-1-yl]-phenyl}-2-oxo-5-oxazolidinylmethyl)acetamide]	2 (≈ 4.39 µM)	16 (≈ 35.1 µM)	1 (≈ 2.2 µM)	1 (≈ 2.2 µM)	1 (≈ 2.2 µM)	2 (≈ 4.39 µM)	0.5 (≈ 1.1 µM)	2 (≈ 4.39 µM)	1 (≈ 2.2 µM)	–	–
CC(=O)NC[C@H]1CN(c2ccc(N3CCOCC3)c(F)c2)C(=O)O1 [Linezolid, N-[[(5S)-3-[3-fluoro-4-(4-morpholinyl)phenyl]-2-oxo-5-oxazolidinyl]methyl]acetamide, reference compound]	1 (≈ 2.96 µM)	16 to 32 (≈ 47.4 to 94.9 µM)	0.5 (≈ 1.48 µM)	16 (≈ 47.4 µM)	2 (≈ 5.93 µM)	2 (≈ 5.93 µM)	1 (≈ 2.96 µM)	64 (≈ 190 µM)	128 (≈ 379 µM)	resistant	2 to 8
